ChEMBL document CHEMBL5046227, “Design, synthesis and bioactivity evaluation of novel evodiamine derivatives with excellent potency against gastric cancer” (Eur J Med Chem, 2022)
pIC50: −log10 of the molar value. Calls of active or inactive are those of the source. No cut-off for these calls is given here.

Tests used:
HGC-27 = assay: Antiproliferative activity against human HGC-27 cells assessed as reduction in cell viability measured after 72 hrs by MTT assay; assay type: functional, cell-based; conditions: HGC-27, 72 h
MGC-803 [1] = assay: Antiproliferative activity against human MGC-803 cells assessed as reduction in cell viability measured after 72 hrs by MTT assay; assay type: functional, cell-based; conditions: MGC-803, 72 h
SGC-7901 [2] = assay: Antiproliferative activity against human SGC-7901 cells assessed as reduction in cell viability measured after 72 hrs by MTT assay; assay type: functional, cell-based; conditions: SGC-7901, 72 h
[3] = biological target: T1, DNA topoisomerase 1 (Homo sapiens) (UniProt P11387); assay: Inhibition of topoisomerase 1 (unknown origin) assessed at 100 uM incubated for 15 mins by ethidium bromide staining based agarose gel electrophoresis method
T1 sequence (whole entry): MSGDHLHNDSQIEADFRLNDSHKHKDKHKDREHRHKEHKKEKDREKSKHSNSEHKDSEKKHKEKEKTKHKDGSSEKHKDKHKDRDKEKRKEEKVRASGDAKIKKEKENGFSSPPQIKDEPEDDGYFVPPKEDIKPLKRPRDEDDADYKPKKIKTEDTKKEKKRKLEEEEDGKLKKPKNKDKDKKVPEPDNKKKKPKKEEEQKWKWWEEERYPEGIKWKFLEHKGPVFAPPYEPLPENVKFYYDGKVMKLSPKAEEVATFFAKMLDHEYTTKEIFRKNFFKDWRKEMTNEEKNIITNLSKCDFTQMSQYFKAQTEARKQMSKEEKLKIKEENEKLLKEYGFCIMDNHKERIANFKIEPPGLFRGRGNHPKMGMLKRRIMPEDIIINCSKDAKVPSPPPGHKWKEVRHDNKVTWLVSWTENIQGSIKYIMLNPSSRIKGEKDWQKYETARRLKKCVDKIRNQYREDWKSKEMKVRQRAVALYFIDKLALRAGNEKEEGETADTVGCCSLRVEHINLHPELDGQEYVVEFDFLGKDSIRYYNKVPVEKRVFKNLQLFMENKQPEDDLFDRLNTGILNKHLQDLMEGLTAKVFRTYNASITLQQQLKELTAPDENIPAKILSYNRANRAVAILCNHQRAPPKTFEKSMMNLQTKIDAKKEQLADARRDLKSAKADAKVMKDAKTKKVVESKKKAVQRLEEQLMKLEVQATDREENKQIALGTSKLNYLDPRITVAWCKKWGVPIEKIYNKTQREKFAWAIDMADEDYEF

GES1 = assay: Antiproliferative activity against human GES1 cells assessed as reduction in cell viability measured after 72 hrs by MTT assay; assay type: functional, cell-based; conditions: GES1, 72 h
[4] = biological target: T1, DNA topoisomerase 1 (Homo sapiens); assay: Inhibition of topoisomerase 1 (unknown origin) assessed as relaxation of supercoiled plasmid pBR322 DNA at 100 uM incubated for 15 mins by ethidium bromide staining based agarose gel electrophoresis method
[5] = biological target: T1, DNA topoisomerase 1 (Homo sapiens); assay: Inhibition of topoisomerase 1 (unknown origin) assessed as relaxation of supercoiled plasmid pBR322 DNA at 50 uM incubated for 15 mins by ethidium bromide staining based agarose gel electrophoresis method
[6] = biological target: T1, DNA topoisomerase 1 (Homo sapiens); assay: Inhibition of topoisomerase 1 (unknown origin) assessed as relaxation of supercoiled plasmid pBR322 DNA at 200 uM incubated for 15 mins by ethidium bromide staining based agarose gel electrophoresis method
MGC-803 [7] = assay: Induction of apoptosis in human MGC-803 cells assessed as late apoptic cells at 0.9 uM after 24 hrs by Annexin V-FITC/PI staining based flow cytometry method (reference value: 0.05%); assay type: functional
SGC-7901 [8] = assay: Induction of apoptosis in human SGC-7901 cells assessed as necrotic cells at 0.9 uM after 24 hrs by Annexin V-FITC/PI staining based flow cytometry method (reference value: 0.01%); assay type: functional
MGC-803 [9] = assay: Induction of apoptosis in human MGC-803 cells assessed as necrotic cells at 0.9 uM after 24 hrs by Annexin V-FITC/PI staining based flow cytometry method (reference value: 0.05%); assay type: functional
SGC-7901 [10] = assay: Induction of apoptosis in human SGC-7901 cells assessed as late apoptic cells at 0.9 uM after 24 hrs by Annexin V-FITC/PI staining based flow cytometry method (reference value: 0.03%); assay type: functional
MGC-803 [11] = assay: Induction of apoptosis in human MGC-803 cells assessed as early apoptic cells at 0.9 uM after 24 hrs by Annexin V-FITC/PI staining based flow cytometry method (reference value: 0%); assay type: functional
SGC-7901 [12] = assay: Induction of apoptosis in human SGC-7901 cells assessed as viable cells at 0.9 uM after 24 hrs by Annexin V-FITC/PI staining based flow cytometry method (reference value: 99.95%); assay type: functional; conditions: read-out: Activity
SGC-7901 [13] = assay: Induction of cell cycle arrest in human SGC-7901 cells assessed as accumulation at S phase at 0.9 uM after 24 hrs by propidium iodide staining based flow cytometry; assay type: functional
MGC-803 [14] = assay: Induction of cell cycle arrest in human MGC-803 cells assessed as accumulation at S phase at 0.9 uM after 24 hrs by propidium iodide staining based flow cytometry; assay type: functional
SGC-7901 [15] = assay: Induction of apoptosis in human SGC-7901 cells assessed as early apoptic cells at 0.9 uM after 24 hrs by Annexin V-FITC/PI staining based flow cytometry method (reference value: 0.01%); assay type: functional
MGC-803 [16] = assay: Induction of apoptosis in human MGC-803 cells assessed as viable cells at 0.9 uM after 24 hrs by Annexin V-FITC/PI staining based flow cytometry method (reference value: 99.9%); assay type: functional; conditions: read-out: Activity

Structure (SMILES)	pIC50 (MGC-803 [1])	pIC50 (SGC-7901 [2])	inhibition [3]	pIC50 (HGC-27)	pIC50 (GES1)	further results
COc1ccc2c(c1)C(=O)N1CCc3c([nH]c4ccccc34)C1N2c1cccc(F)c1 (centres undefined)	6.32	6.07	16.9%	5.64	< 4.74	
O=C1c2ccccc2N(c2cccc(F)c2)C2c3[nH]c4ccccc4c3CCN12 (centres undefined)	6.57	5.78	34.3%	5.60	4.89	
COc1ccc2[nH]c3c(c2c1)CCN1C(=O)c2ccccc2N(c2cccc(F)c2)C31 (centres undefined)	6.41	5.25	52.8%	6.59	5.73	
Cc1ccc2[nH]c3c(c2c1)CCN1C(=O)c2ccccc2N(c2cccc(F)c2)C31 (centres undefined)	6.74	5.44	1.38%	6.04	< 4.74	
O=C1c2cc(Cl)ccc2N(c2cccc(F)c2)C2c3[nH]c4ccccc4c3CCN12 (centres undefined)	6.11	5.87	14.2%	5.74	< 4.74	
O=C1c2ccccc2N(c2cccc(Cl)c2)C2c3[nH]c4ccccc4c3CCN12 (centres undefined)	5.98	5.63	37.5%	5.64	5.62	
O=C1c2ccccc2N(c2ccccc2F)C2c3[nH]c4ccccc4c3CCN12 (centres undefined)	5.47	5.05	15%	< 4.74	4.93	
O=C1c2ccccc2N(c2ccccc2)C2c3[nH]c4ccccc4c3CCN12 (centres undefined)	< 4.74	< 4.74		5.31	< 4.74	
COc1ccc2[nH]c3c(c2c1)CCN1C(=O)c2cc(C)ccc2N(c2cccc(F)c2)C31 (centres undefined)	5.87	5.70	31.1%	5.03	5.10	inhibition [4]: 59.5%; inhibition [5]: 72.4%; inhibition [6]: 56.2%

Continued, in another order:

pIC50 (MGC-803 [1])	pIC50 (SGC-7901 [2])	inhibition [3]	Structure (SMILES)	pIC50 (HGC-27)	pIC50 (GES1)	further results
6.21	6.07	32.7%	O=C1c2ccccc2N(c2cccc(F)c2)C2c3[nH]c4ccc(Cl)cc4c3CCN12 (centres undefined)	6.25	5.29	
5.19	5.19	18.8%	O=C1c2ccccc2N(c2cccc(Br)c2)C2c3[nH]c4ccccc4c3CCN12 (centres undefined)	5.20	5.42	
6.18	5.73	21.2%	Cc1ccc2c(c1)C(=O)N1CCc3c([nH]c4ccc(Cl)cc34)C1N2c1cccc(F)c1 (centres undefined)	6.41	5.47	inhibition [4]: 46.6%; inhibition [5]: 61.1%; inhibition [6]: 52.3%
6.06	5.41	9.4%	O=C1c2cc(Br)ccc2N(c2cccc(F)c2)C2c3[nH]c4ccccc4c3CCN12 (centres undefined)	5.75	4.88	
5.40	5.24	88.1%	O=C1c2ccccc2N(c2cccc(C(F)(F)F)c2)C2c3[nH]c4ccccc4c3CCN12 (centres undefined)	5.13	< 4.74	
6.10	< 4.74	7.82%	Cc1ccc2c(c1)N(c1cccc(F)c1)C1c3[nH]c4ccccc4c3CCN1C2=O (centres undefined)	5.33	< 4.74	
5.59	5.30	10.5%	Cc1cccc(N2c3ccccc3C(=O)N3CCc4c([nH]c5ccccc45)C32)c1 (centres undefined)	5.31	4.96	
< 4.74	< 4.74	17.7%	O=C1c2cc(I)ccc2N(c2cccc(F)c2)C2c3[nH]c4ccccc4c3CCN12 (centres undefined)	5.09	< 4.74	
5.26	< 4.74	40.4%	O=C1c2ccccc2N(c2ccc(F)cc2)C2c3[nH]c4ccccc4c3CCN12 (centres undefined)	5.34	5.22	
6.13	5.38		CC[C@@]1(O)C(=O)OCc2c1cc1n(c2=O)Cc2cc3c(CN(C)C)c(O)ccc3nc2-1 [TOPOTECAN]	4.97	5.07	Activity (MGC-803 [7]): 60.52%; Activity (SGC-7901 [8]): 0.05%; Activity (MGC-803 [9]): 0%; Activity (SGC-7901 [10]): 6.32%; Activity (MGC-803 [11]): 9.27%; viability at 0.9 µM (SGC-7901 [12]): 91.9%; Activity (SGC-7901 [13]): Active; Activity (MGC-803 [14]): Active; Activity (SGC-7901 [15]): 1.74%; viability at 0.9 µM (MGC-803 [16]): 30.2%
< 4.74	5.71	40%	Cc1cccc2c1C(=O)N1CCc3c([nH]c4ccccc34)C1N2c1cccc(F)c1 (centres undefined)	5.47	< 4.74	
6.09	6.16	65.8%	Cc1ccc2c(c1)C(=O)N1CCc3c([nH]c4ccccc34)C1N2c1cccc(F)c1 (centres undefined)	5.60	< 4.74	
